Literature values, collected in patent publication US9119775B2, “Use of pilocarpine for hypoptyalism treatment” (priority 2004, dated 2015).

Key:
salivary glands [1] = system: salivary glands
salivary glands [2] = conditions: according to the known pharmacokinetic studies

SMILES: CC[C@@H]1C(=O)OC[C@@H]1Cc1cncn1C [pilocarpine]
- delay of first action of the pilocarpine after intake (salivary glands [1]; oral method, after intake): 0.45 to 1 h
- undesirable secondary effects (salivary glands [1]; oral tablets, 15 mg per day up to 30 mg per day, conducted over several weeks): nausea, excessive sweating, sensations of dizziness, hot flashes or asthenias
- duration of the effects of stimulation (salivary glands [2]): 4 to 8 h
